Among the data in ChEMBL document CHEMBL3639046, “Substituted pyrimido[1,2-b]indazoles and their use as modulators of the Pi3K/Akt pathway” (2015) are IC50 values, retold here.

The assay deals with RAC-alpha serine/threonine-protein kinase (Homo sapiens, UniProt P31749). Kind of assay: TR-FRET assay: For the assay 50 nl of a 100fold concentrated solution of the test compound in DMSO was pipetted into a black low volume 384well microtiter plate (Greiner Bio- One, Frickenhausen, Germany), 2 ul of a solution of Akt1 in assay buffer [50 mM TRIS/HCI pH 7.5, 5 mM MgCI2, 1 mM dithiothreitol, 0.02% (v/v) Triton X-100 (Sigma)] were added and the mixture was incubated for 15 min at 22 C to allow pre-binding of the test compounds to the enzyme before the start of the kinase reaction. Then the kinase reaction was started by the addition of 3 ul of a solution of adenosine-tri-phosphate (ATP, 16.7 ul => final cone, in the 5 ul assay volume is 10 ul) and substrate (1 .67 ul => final cone, in the 5 ul assay volume is 1 ul) in assay buffer and the resulting mixture was incubated for a reaction time of 60 min at 22 C. The concentration of Akt1 in the assay was adjusted depending of the activity of the enzyme lot. (Time-resolved FRET reads energy transfer from a long-lived donor to a nearby acceptor.)
Sequence of RAC-alpha serine/threonine-protein kinase (P31749 whole entry): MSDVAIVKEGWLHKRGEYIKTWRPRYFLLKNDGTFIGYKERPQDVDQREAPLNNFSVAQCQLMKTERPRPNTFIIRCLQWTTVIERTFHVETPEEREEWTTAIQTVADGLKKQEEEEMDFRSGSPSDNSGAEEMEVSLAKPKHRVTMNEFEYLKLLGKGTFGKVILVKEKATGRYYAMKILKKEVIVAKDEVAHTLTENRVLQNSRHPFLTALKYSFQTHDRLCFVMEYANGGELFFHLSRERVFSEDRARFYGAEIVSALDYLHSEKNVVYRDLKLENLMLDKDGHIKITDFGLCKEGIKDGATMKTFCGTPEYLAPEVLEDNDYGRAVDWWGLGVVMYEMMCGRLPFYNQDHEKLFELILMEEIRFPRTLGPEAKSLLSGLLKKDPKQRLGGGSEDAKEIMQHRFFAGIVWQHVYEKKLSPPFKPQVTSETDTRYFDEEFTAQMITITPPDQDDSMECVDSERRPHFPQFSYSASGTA
By IC50 is commonly meant the point on the concentration scale where inhibition reaches its midpoint. Take `NC1(c2ccc(-c3nc4c5cc(F)ccc5nn4cc3-c3ccccc3)cc2)CCC1`: the IC50 was 93 nM.
As for `NC1(c2ccc(-c3nc4c5cc(-c6ccc(F)cc6)ccc5nn4cc3-c3ccccc3)cc2)CCC1`, the IC50 came out at 110 nM.
With `N#Cc1cccc(-c2ccc3nn4cc(-c5ccccc5)c(-c5ccc(C6(N)CCC6)cc5)nc4c3c2)c1`, the IC50 is 67 nM.
As to `N#Cc1ccc(-c2cccc3nn4cc(-c5ccccc5)c(-c5ccc(C6(N)CCC6)cc5)nc4c23)cc1`, the IC50 is 320 nM.
With `N#Cc1cccc(-c2cccc3c2nn2cc(-c4ccccc4)c(-c4ccc(C5(N)CCC5)cc4)nc32)c1` the figure was 10000 nM.
With `N#Cc1cccc2c1nn1cc(-c3ccccc3)c(-c3ccc(C4(N)CCC4)cc3)nc21` the figure was 49 nM; with `NC1(c2ccc(-c3nc4c5cccc(O)c5nn4cc3-c3ccccc3)cc2)CCC1`, 100 nM.
